Source: patent US9695155B2, “Herbicidal substituted pyrimidinyloxy benzene compounds” (E. I. DU PONT DE NEMOURS AND COMPANY, priority 2013, dated 2017)

What was measured:
sedge, umbrella = test: Test C flooded paddy test; assay type: in vivo, Cyperus difformis; conditions: Flood, scale 0 to 100 (0 no effect, 100 complete control), 13 to 15 days
Procedure, shortened: (§1)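 Ratings were visual and made relative to untreated controls after 13 to 15 greenhouse days.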

barnyardgrass = test: Test C flooded paddy test; assay type: in vivo, Echinochloa crus-galli; conditions: Flood, scale 0 to 100 (0 no effect, 100 complete control), 13 to 15 days
Procedure, shortened: as §1

kochia = test: Test A preemergence; assay type: in vivo, Kochia scoparia
Procedure, shortened: (§2)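 Pre- and postemergence greenhouse screen. Soil: loam + sand. Spray carrier: solvent mixture, non-phytotoxic, with surfactant. Post timing at 1–2 leaves, height 2–10 cm. Readout: visual injury on a 0–100 scale roughly 10 days after application, untreated plants as reference.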

ragweed = test: Test A postemergence; assay type: in vivo, Ambrosia elatior
Procedure, shortened: as §2

galium = test: Test A postemergence; assay type: in vivo, Galium aparine
Procedure, shortened: as §2

[1] = 125 g ai/ha, 0 to 100 scale where 0 is no effect and 100 is complete control
[2] = 500 g ai/ha, 0 to 100 scale, 0 no effect, 100 complete control, approx. 10 days
[3] = 500 g ai/ha, 0 to 100 scale where 0 is no effect and 100 is complete control
[4] = 31 g ai/ha, 0 to 100 scale, 0 no effect, 100 complete control
[5] = 1000 g ai/ha, 0 to 100 scale, 0 no effect, 100 complete control, approx. 10 days
[6] = 1000 g ai/ha, 0 to 100 scale, 0 no effect, 100 complete control
[7] = 125 g ai/ha, 0 to 100 scale, 0 no effect, 100 complete control

SMILES	Plant response rating, Sedge, Umbrella (sedge, umbrella; 31 g ai/ha)	Plant response rating, Sedge, Umbrella (sedge, umbrella; 62 g ai/ha)	Plant response rating, Sedge, Umbrella (sedge, umbrella; 125 g ai/ha)	Plant response rating, Sedge, Umbrella (sedge, umbrella; 250 g ai/ha)	Plant response rating, Barnyardgrass (barnyardgrass; 31 g ai/ha)	Plant response rating, Barnyardgrass (barnyardgrass; 62 g ai/ha)	Plant response rating, Barnyardgrass (barnyardgrass; 125 g ai/ha)	Plant response rating, Barnyardgrass (barnyardgrass; 250 g ai/ha)	Plant response rating, Kochia (kochia; [1])	Plant response rating, Ragweed (ragweed; [3])	Plant response rating, Galium (galium; [3])	Kochia plant response rating (kochia; [3])	further results
Clc1cnc(Oc2ccccc2-n2cc(Cl)cn2)nc1 [Compound 3]	0	0	20	70	0	0	0	0					
N#Cc1cccc(Oc2ncc(F)cn2)c1-n1cc(Br)cn1 [Compound 62]	0	50	90	100	0	0	0	40					
Clc1cnc(Oc2cccc(Br)c2-n2cc(Br)cn2)nc1 [Compound 65]	50	65	75	85	0	0	0	0					
FCc1cccc(Oc2ncc(Cl)cn2)c1-n1cc(Br)cn1 [Compound 83]									100	80	100		Kochia plant response rating (kochia; [2]): 100; Plant response rating, Ragweed (ragweed; [1]): 70; Plant response rating, Galium (galium; [1]): 100
CCOc1cn(-c2c(Br)cccc2Oc2ncc(Cl)cn2)nn1 [Compound 84]									100	90	100		Kochia plant response rating (kochia; [2]): 100; Plant response rating, Ragweed (ragweed; [1]): 50; Plant response rating, Galium (galium; [1]): 100
FCc1cccc(Oc2ncc(F)cn2)c1-n1cc(C(F)(F)F)cn1 [Compound 118]									100				Kochia plant response rating (0 to 100 scale) (kochia; 31 g ai/ha): 100; Plant response rating, Ragweed (ragweed; [4]): 70; Plant response rating, Galium (galium; [4]): 70; Plant response rating, Galium (galium; [1]): 90
FCc1cccc(Oc2ncc(Br)cn2)c1-n1cc(C(F)(F)F)cn1 [Compound 120]	0	0	60	85	0	0	60	85	90				Kochia plant response rating (0 to 100 scale) (kochia; 31 g ai/ha): 20; Plant response rating, Ragweed (ragweed; [4]): 30; Plant response rating, Galium (galium; [4]): 90; Plant response rating, Galium (galium; [1]): 100
Clc1cnc(Oc2cccc(Br)c2-n2cc(Br)nn2)nc1 [Compound 129]									100	90	100	100	Ragweed plant response rating (ragweed; [1]): 80; Galium plant response rating (galium; [1]): 100
FC(F)(F)Sc1cnn(-c2ccccc2Oc2ncc(Cl)cn2)c1 [Compound 132, 5-chloro-2-[2-[4-(trifluoromethylthio)-1H-pyrazol-1-yl]phenoxy]pyrimidine]									100	30	100	100	Ragweed plant response rating (ragweed; [1]): 10; Galium plant response rating (galium; [1]): 100
Cc1cnc(Oc2cccc(C#N)c2-n2cc(I)cn2)nc1 [Compound 136]									90	100	100	100	Ragweed plant response rating (ragweed; [1]): 50; Galium plant response rating (galium; [1]): 80
COc1cnn(-c2c(C#N)cccc2Oc2ncc(Cl)cn2)c1 [Compound 137]									90	100	100	100	Ragweed plant response rating (ragweed; [1]): 20; Galium plant response rating (galium; [1]): 70
FCc1cn(-c2c(F)cccc2Oc2ncc(Cl)cn2)nn1 [Compound 154]													Kochia plant response rating (kochia; [5]): 100; Plant response rating, Ragweed (ragweed; [6]): 100; Plant response rating, Galium (galium; [6]): 100
Fc1cccc(Oc2ncc(Cl)cn2)c1-n1cc(C2CC2)nn1 [Compound 155]													Kochia plant response rating (kochia; [5]): 100; Plant response rating, Ragweed (ragweed; [6]): 100; Plant response rating, Galium (galium; [6]): 100
N#Cc1cnn(-c2c(Oc3ncc(Cl)cn3)cccc2C(F)F)c1 [Compound 236]	0	20	60	80	0	0	0	20					
N#Cc1cccc(Oc2ncc(Cl)cn2)c1-n1cnc(C(F)(F)F)c1 [Compound 252, 3-[(5-chloro-2-pyrimidinyl)oxy]-2-[4-(trifluoromethyl)-1H-imidazol-1-yl]benzonitrile]										90	100	100	Plant response rating, Kochia (kochia; 31 g ai/ha, 0 to 100 scale where 0 is no effect and 100 is complete control, visual, approximately 10 days): 80; Kochia plant response rating (0 to 100 scale) (kochia; 125 g ai/ha): 100; Plant response rating, Ragweed (ragweed; [4]): 20; Plant response rating, Ragweed (ragweed; [7]): 70; Plant response rating, Galium (galium; [4]): 60; Plant response rating, Galium (galium; [7]): 90
N#Cc1cccc(Oc2ncc(Cl)cn2)c1-n1cc(-n2ccc(C(F)(F)F)n2)cn1 [Compound 284]										20	60	100	Kochia plant response rating (0 to 100 scale) (kochia; 125 g ai/ha): 80; Plant response rating, Ragweed (ragweed; [7]): 20; Plant response rating, Galium (galium; [7]): 20
